Data taken from US7354956B2, “Composition containing a sapogenin and use thereof” (L'Oreal, priority 2002, dated 2008).
Read-outs that look alike come from different tables or passages of the source.

System: nerve/muscle (motor plate) junction, phrenic nerve/diaphragm preparation (striated muscle)
Assay: Muscle-relaxant effect on contractions of isolated rat phrenic nerve/diaphragm preparation induced by indirect stimulation via the phrenic nerve
Conditions: for inhibition at 10 µM / IC50: Rattus norvegicus; for inhibition at 10 µM: read-out: % INHIBITION OF CONTRACTIONS; for IC50: cumulative concentrations 10^−10 M to 10^−5 M, read-out: IC50 (concentration to obtain 50% of the inhibitory effect)
Experimental: Hecogenin acetate and diosgenin, sold by Sigma, were tested on a model of nerve/muscle (motor plate) junction obtained in a phrenic nerve/diaphragm preparation isolated from rat (striated muscle) (Pollard B. J. et al, Br. J. Anaesth., 1988, 61, 419-424).
The phrenic nerve and the diaphragm are carefully isolated and placed in a 50 ml tank filled with survival liquid (Krebs-Henseleit liquid) maintained at a temperature of 37° C. and oxygenated with an oxygen/CO2 mixture (95/5).
The tension variations of the diaphragm are recorded with an initial pre-load of several grams.
After a relaxation period of 30 minutes, the diaphragm is stimulated indirectly via the phrenic nerve. […]

[1] = contractions induced by indirect stimulation via phrenic nerve

SMILES | inhibition of the contractions induced by the indirect stimulations (concentration 10^−4 M) | effect on the contractions induced by the indirect stimulations (concentration 10^−5 M) | inhibition at 10 µM [%] | IC50 [1] [nM] | inhibition at 10 µM (concentration 10^−5 M, contractions induced by indirect stimulation via phrenic nerve) [%]
CCN(CCCc1ccccc1)CCCc1ccccc1 [alverine, reference compound] | completely inhibits | no effect |  |  | 
CC(=O)O[C@H]1CC[C@@]2(C)[C@@H](CC[C@@H]3[C@@H]2CC(=O)[C@]2(C)[C@@H]4[C@H](C[C@@H]32)O[C@]2(CC[C@@H](C)CO2)[C@H]4C)C1 [Hecogenin acetate] |  |  | 100 | 2500 | 
C[C@@H]1CC[C@@]2(OC1)O[C@H]1C[C@H]3[C@@H]4CC=C5C[C@@H](O)CC[C@]5(C)[C@H]4CC[C@]3(C)[C@H]1[C@@H]2C [Diosgenin] |  |  |  | 1000 | 100
